Reference: ChEMBL document CHEMBL1140576, “Discovery of novel non-cytotoxic salicylhydrazide containing HIV-1 integrase inhibitors” (Bioorg Med Chem Lett, 2007)
Calls of active or inactive are those of the source. The rule behind the calls is not given here.

What was measured:
[1] = molecular target: T1, Human immunodeficiency virus type 1 integrase (Human immunodeficiency virus 1, UniProt Q7ZJM1); test: Inhibition of HIV1 integrase 3'-end processing activity
[2] = molecular target: T1, Human immunodeficiency virus type 1 integrase; test: Inhibition of HIV1 integrase strand transfer activity
[3] = Cytotoxicity against human MDA-MB-435 cells; type: cell-based
HCT-116 = test: Cytotoxicity against human HCT116 cells at 20 uM; type: cell-based; settings: hct-116, 20 µM
[4] = Cytotoxicity against human HCT116 cells; type: cell-based, HCT-116
MDA-MB-435 = test: Cytotoxicity against human MDA-MB-435 cells at 20 uM; type: cell-based; settings: mda-mb-435, 20 µM
[5] = molecular target: Human immunodeficiency virus type 1 integrase (Human immunodeficiency virus 1) (UniProt Q7ZJM1); test: Inhibition of HIV1 integrase 3'-end processing activity at 100 uM
[6] = molecular target: Human immunodeficiency virus type 1 integrase (Human immunodeficiency virus 1) (UniProt Q7ZJM1); test: Inhibition of HIV1 integrase strand transfer activity at 100 uM

T1 sequence (Q7ZJM1 whole entry): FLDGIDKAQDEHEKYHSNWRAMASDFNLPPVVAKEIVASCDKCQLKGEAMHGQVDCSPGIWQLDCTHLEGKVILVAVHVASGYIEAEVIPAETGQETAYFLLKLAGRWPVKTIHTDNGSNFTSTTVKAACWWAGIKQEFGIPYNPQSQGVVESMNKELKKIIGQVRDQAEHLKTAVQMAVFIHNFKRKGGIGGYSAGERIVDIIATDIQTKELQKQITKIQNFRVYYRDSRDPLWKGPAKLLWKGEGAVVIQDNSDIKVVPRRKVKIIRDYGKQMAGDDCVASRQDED
Sequence of Human immunodeficiency virus type 1 integrase (Human immunodeficiency virus 1) (Q7ZJM1 as listed by the source): as the sequence (Q7ZJM1 whole entry) above

Row | Structure (SMILES) | IC50 [1] [µM] | IC50 [2] [µM] | CC50 [3] [µM] | Activity (HCT-116) [%] | CC50 [4] [µM] | Activity (MDA-MB-435) [%] | Activity [5] | Activity [6]
1 | O=C(CSc1nnnn1-c1ccccc1)NNC(=O)c1ccc(O)cc1O | 68 | 61 | > 20 | 15 | > 20 | 3 | – | –
2 | Cc1cc(C)nc(SCc2nnc(SCC(=O)NNC(=O)c3ccccc3O)n2C)n1 | > 100 | > 100 | > 20 | 21 | > 20 | 16 | – | –
3 | O=C(CSc1nnc(-c2ccc(Cl)cc2)n1-c1ccccc1)N/N=C/c1ccccc1C(=O)O | > 100 | > 100 | > 20 | 0 | > 20 | 8 | inactive | inactive
4 | COc1ccc(-n2c(Cc3ccccc3)nnc2SCC(=O)NNC(=O)c2ccccc2O)cc1 | 18 | 17 | > 20 | 0 | > 20 | 10 | – | –
5 | Cc1ccc(-n2c(SCC(=O)NNC(=O)c3ccccc3O)nnc2-c2ccccc2)cc1 | 23 | 12 | 20 | – | 15 | – | – | –
6 | O=C(CSc1nnc(Cc2ccccc2)n1-c1cccc(Cl)c1)NNC(=O)c1ccccc1O | 9 | 8 | > 20 | 11 | > 20 | 5 | – | –
7 | COc1ccccc1-n1c(SCC(=O)NNC(=O)c2ccccc2O)nnc1-c1ccccc1O | 8 | 6 | > 20 | – | 20 | 40 | – | –
8 | O=C(CSc1nnc(-c2ccccc2)n1Cc1ccccc1)NNC(=O)c1ccccc1O | 21 | 9 | > 20 | 34 | > 20 | 22 | – | –
9 | Cc1cc(C)nc(SCc2nnc(SCC(=O)NNC(=O)c3ccccc3O)n2-c2ccccc2)n1 | 51 | 27 | > 20 | 0 | > 20 | 3 | – | –
10 | O=C(CSc1nnc(-c2ccccc2O)n1Cc1ccccc1)NNC(=O)c1ccccc1O | 15 | 9 | > 20 | 8 | > 20 | 15 | – | –
11 | O=C(CSc1nnc(-c2ccncc2)n1-c1ccc(F)cc1)NNC(=O)c1ccccc1O | 49 | 31 | > 20 | 22 | > 20 | 14 | – | –
12 | O=C(CSc1nnc(-c2ccc(Cl)cc2)n1-c1ccccc1)NNC(=O)c1ccccc1O | 11 | 5 | > 20 | 36 | > 20 | 30 | – | –
13 | Cn1c(SCC(=O)NNC(=O)c2ccccc2O)nnc1-c1ccccc1 | 64 | 58 | > 20 | 39 | > 20 | 32 | – | –
14 | COc1ccc(-c2nnc(SCC(=O)NNC(=O)c3ccccc3O)n2-c2ccccc2)cc1OC | 22 | 21 | > 20 | 24 | > 20 | 13 | – | –
15 | O=C(CSc1nnc(-c2ccncc2)n1-c1ccccc1)N/N=C/c1ccccc1O | > 100 | > 100 | > 20 | 40 | > 20 | 44 | inactive | inactive
16 | Cc1ccc(-n2c(SCC(=O)NNC(=O)c3ccccc3O)nnc2-c2ccccc2O)cc1 | 5 | 3 | > 20 | 26 | > 20 | 12 | – | –
17 | O=C(CSc1nnc(Cc2ccccc2)n1C1CCCCC1)NNC(=O)c1ccccc1O | 21 | 17 | > 20 | 11 | > 20 | 5 | – | –
